The structures appear in SMILES notation. Where only a bound is given, the exact number is not on record here.

Experiment [1] addresses T1, α4β7 integrin (Homo sapiens, UniProt P13612+P26010).
T1 construct: purchased R&D Systems
T1 sequence (P13612 34-970 limits assumed): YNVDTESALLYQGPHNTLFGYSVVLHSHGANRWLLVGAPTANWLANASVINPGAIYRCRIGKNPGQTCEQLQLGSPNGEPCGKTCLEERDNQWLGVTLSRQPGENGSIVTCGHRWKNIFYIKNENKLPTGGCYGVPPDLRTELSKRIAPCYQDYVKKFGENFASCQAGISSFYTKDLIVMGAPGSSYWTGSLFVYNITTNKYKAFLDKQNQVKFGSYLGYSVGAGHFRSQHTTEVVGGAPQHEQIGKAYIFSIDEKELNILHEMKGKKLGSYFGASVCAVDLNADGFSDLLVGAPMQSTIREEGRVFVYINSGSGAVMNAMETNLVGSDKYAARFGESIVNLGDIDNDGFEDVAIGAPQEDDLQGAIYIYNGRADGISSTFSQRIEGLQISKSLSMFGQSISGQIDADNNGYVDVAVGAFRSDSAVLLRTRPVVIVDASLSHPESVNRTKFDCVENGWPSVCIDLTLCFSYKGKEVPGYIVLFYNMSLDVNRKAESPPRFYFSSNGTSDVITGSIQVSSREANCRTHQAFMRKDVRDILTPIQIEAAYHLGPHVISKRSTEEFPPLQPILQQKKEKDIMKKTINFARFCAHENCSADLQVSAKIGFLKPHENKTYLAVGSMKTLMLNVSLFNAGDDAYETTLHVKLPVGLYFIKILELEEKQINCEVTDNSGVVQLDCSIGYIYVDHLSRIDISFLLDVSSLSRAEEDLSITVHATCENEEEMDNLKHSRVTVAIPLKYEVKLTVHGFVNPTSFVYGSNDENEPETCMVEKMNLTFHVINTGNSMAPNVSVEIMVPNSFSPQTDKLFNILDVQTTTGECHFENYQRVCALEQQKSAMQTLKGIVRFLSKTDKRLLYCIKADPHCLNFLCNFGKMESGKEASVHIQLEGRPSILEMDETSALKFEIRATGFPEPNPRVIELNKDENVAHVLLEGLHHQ
T1 sequence (P26010 20-723 limits assumed): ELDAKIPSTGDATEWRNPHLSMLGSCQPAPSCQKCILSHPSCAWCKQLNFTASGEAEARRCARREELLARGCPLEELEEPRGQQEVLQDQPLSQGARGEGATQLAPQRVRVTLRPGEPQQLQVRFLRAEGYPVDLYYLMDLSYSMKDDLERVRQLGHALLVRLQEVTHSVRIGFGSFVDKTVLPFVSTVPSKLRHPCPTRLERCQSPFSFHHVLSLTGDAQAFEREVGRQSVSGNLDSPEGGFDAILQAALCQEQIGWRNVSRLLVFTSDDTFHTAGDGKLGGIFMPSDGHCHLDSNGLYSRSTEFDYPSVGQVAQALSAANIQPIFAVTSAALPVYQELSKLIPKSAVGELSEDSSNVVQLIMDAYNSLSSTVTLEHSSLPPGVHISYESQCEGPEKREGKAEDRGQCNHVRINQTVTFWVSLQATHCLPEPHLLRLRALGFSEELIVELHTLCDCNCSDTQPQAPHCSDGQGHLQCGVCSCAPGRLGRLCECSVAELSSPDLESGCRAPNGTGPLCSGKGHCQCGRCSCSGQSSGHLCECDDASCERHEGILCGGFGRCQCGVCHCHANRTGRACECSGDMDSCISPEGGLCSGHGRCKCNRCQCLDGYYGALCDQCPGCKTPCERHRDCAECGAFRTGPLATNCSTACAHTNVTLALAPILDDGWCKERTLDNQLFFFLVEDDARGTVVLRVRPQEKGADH
Conditions: purified integrin; read-out: Binding affinity IC50, α4β7/MAdCAM-1. The protocol: For the evaluation of binding affinity to purified α4β1, αMβ2, and α4β7 integrins, competitive solid-phase ligand binding assays were performed as follows. […] Afterward, each well was washed and blocked for 1 h at RT. Purified integrins (α4β1: 0.5 μg/mL; α4β7: 0.5 μg/mL; αMβ2: 0.5 μg/mL; R&D Systems) were preincubated with serial dilutions of new compounds (10^–4 – 10^–10 M) for 30 min at RT and then plated into coated wells for 1 h at RT. After two washes, primary antibody (for α4β1 and α4β7: rabbit anti-α4, Abcam, 1:100 dilution; for αMβ2: rabbit anti-αM, Abcam, 1:100 dilution) was added and incubated for 1 h at RT. The plate was washed twice and then was incubated with anti-rabbit AlexaFluor488 secondary antibody (1:400 dilution, ThermoFischer Scientific) for 1 h at RT. After washing three times, fluorescence was measured as described in the previous section.

In experiment [2] the target is α5β1 integrin (Homo sapiens, UniProt P05556+P08648). Nature of the experiment: Competitive solid-phase binding assay, purified α5β1 / FN. Conditions: read-out: Binding affinity IC50, α5β1/FN. The protocol: Solid-phase ligand binding assays on purified integrin were conducted as previously described[34] with the following modifications. […] The following day, wells were blocked with TSB buffer (20 mM Tris-HCl, 150 mM NaCl, 1 mM CaCl2, 1 mM MgCl2, 1 mM MnCl2, pH 7.5, 1% BSA) for 1 h at room temperature. Purified α5β1 (10 μg/mL) or αLβ2 (7 μg/mL) was incubated with the new synthesized compounds, at different concentrations (10^–4 to 10^–10 M), in coated wells for 1 h at RT. Then, after three washes with PBST buffer, primary antibody (anti-α5β1, BD Bioscience, 1:100 dilution or anti-αL, Abcam, 1:200 dilution) was added for 1 h at RT. Then antirabbit AlexaFluor488-secondary antibody (ThermoFisher Scientific, 1:400 dilution) was added after three washes with PBST buffer and incubated 1 h at room temperature.

With `Cc1ccccc1NC(=O)N1C(=O)CC1CC(=O)NCC(=O)O` (stereo not shown) [1b], the IC50 in experiment [1] is greater than 5 µM; in experiment [2], 0.049 ± 0.007 µM.
In the same order, the values of `Cc1ccccc1NC(=O)N1C(=O)CC1CC(=O)O` (stereo not shown) [1a] are greater than 5 µM and greater than 5 µM.

For the origin of these results see article PMC10108353, “Design and Pharmacological Characterization of α4β1 Integrin Cyclopeptide Agonists: Computational Investigation of Ligand Determinants for Agonism versus Antagonism” (Journal of Medicinal Chemistry, 2023).
